Data published in article PMC8786778 (Pharmacological reports : PR, 2021).
Like-named read-outs stand apart in the source and are kept apart here.

What was measured:
Assay type in all cases: cell-based
[1] = test system: MDA-MB-231; experiment: Differential nuclear staining (DNS) cytotoxicity assay; conditions: Homo sapiens, MDA-MB-231, 48 h
Text: (§1) All cell lines were obtained commercially from ATCC (American Type Culture Collection). Several cancer and non-cancerous cell lines were used for this analysis. […] Solid tumor cancer cell lines included MDA-MB-231 (Adenocarcinoma; HTB-26) cultured in DMEM medium, HT-29 (Colorectal Adenocarcinoma; HTB-38) cultured in McCoy’s 5A medium, and COLO 205 (Colorectal Adenocarcinoma; CCL-222) cultured in RPMI-1640 medium. Non-cancerous cell lines included Hs27 (No disease, foreskin; CRL-1634) cultured in DMEM medium and MCF-10A (Fibrocystic Disease; CRL-10317) cultured in DMEM/F12 medium supplemented with 20 ng/ml epidermal growth factor, 0.5 μg/ml hydrocortisone, and 10 μg/ml insulin. Additionally, all media used for cell culture was supplemented with 10% heat-inactivated fetal bovine serum (FBS), and a mixture of 25 μg/ml amphotericin B, 1,000 U/ml penicillin, and 1,000 μg/ml streptomycin. […] All cell lines were grown in an incubator supplemented with 5% CO2 at 37 °C.
(§2) Cytotoxic activity was evaluated through the DNS assay [17, 18]. This assay involves labeling live and dead cells with two nucleic acid intercalators, Hoechst 33342 and propidium iodide (PI). Hoechst 33342 stains all cells (healthy and dead), but PI stains only dead or dying cells with a compromised cell membrane [17, 18]. For the experiment, each cell line was plated at a density of 10,000 cells per well (96-well plate) in 100 μl media and placed in the incubator overnight under cell culture conditions. Cells were then treated with varying concentrations of the compound of interest for 48 h. Two hours before incubation elapsed, 10 μl of a dye mixture consisting of phosphate-buffered saline (PBS), Hoechst 33342 (1 μg/ml final; Invitrogen, H1399), and PI (1 μg/ml final; Invitrogen, P1304MP) was added to each well. […] For quantitative analysis, images were segmented through the IN Cell Analyzer Workstation 3.2 software (GE Healthcare). […] Each compound concentration and each control were assessed in triplicate. […] SCI was calculated using the following equation: CC50 of the non-cancer cell line/CC50 of the cancer cell line [20].

[2] = test system: KCL22; experiment: as above; conditions: Homo sapiens
Text: (§3) All cell lines were obtained commercially from ATCC (American Type Culture Collection). Several cancer and non-cancerous cell lines were used for this analysis. […] Solid tumor cancer cell lines included MDA-MB-231 (Adenocarcinoma; HTB-26) cultured in DMEM medium, HT-29 (Colorectal Adenocarcinoma; HTB-38) cultured in McCoy’s 5A medium, and COLO 205 (Colorectal Adenocarcinoma; CCL-222) cultured in RPMI-1640 medium. Non-cancerous cell lines included Hs27 (No disease, foreskin; CRL-1634) cultured in DMEM medium and MCF-10A (Fibrocystic Disease; CRL-10317) cultured in DMEM/F12 medium supplemented with 20 ng/ml epidermal growth factor, 0.5 μg/ml hydrocortisone, and 10 μg/ml insulin. Additionally, all media used for cell culture was supplemented with 10% heat-inactivated fetal bovine serum (FBS), and a mixture of 25 μg/ml amphotericin B, 1,000 U/ml penicillin, and 1,000 μg/ml streptomycin. The HL-60 cell line was supplemented with 20% FBS and the same antibiotic mixture described. All cell lines were grown in an incubator supplemented with 5% CO2 at 37 °C.
(§4) Cytotoxic activity was evaluated through the DNS assay [17, 18]. This assay involves labeling live and dead cells with two nucleic acid intercalators, Hoechst 33342 and propidium iodide (PI). Hoechst 33342 stains all cells (healthy and dead), but PI stains only dead or dying cells with a compromised cell membrane [17, 18]. For the experiment, each cell line was plated at a density of 10,000 cells per well (96-well plate) in 100 μl media and placed in the incubator overnight under cell culture conditions. Cells were then treated with varying concentrations of the compound of interest for 48 h. […] For quantitative analysis, images were segmented through the IN Cell Analyzer Workstation 3.2 software (GE Healthcare). […] Each compound concentration and each control were assessed in triplicate. […] SCI was calculated using the following equation: CC50 of the non-cancer cell line/CC50 of the cancer cell line [20].

[3] = test system: Ramos; experiment: as above; conditions: Homo sapiens, Ramos, 48 h
Text: as §1, §2

[4] = test system: Jurkat; experiment: as above; conditions: Homo sapiens, Jurkat, 48 h
Text: as §3, §4

[5] = test system: HL-60; experiment: as above; conditions: for CC50: Homo sapiens
Experimental: (§5) All cell lines were obtained commercially from ATCC (American Type Culture Collection). Several cancer and non-cancerous cell lines were used for this analysis. […] Non-cancerous cell lines included Hs27 (No disease, foreskin; CRL-1634) cultured in DMEM medium and MCF-10A (Fibrocystic Disease; CRL-10317) cultured in DMEM/F12 medium supplemented with 20 ng/ml epidermal growth factor, 0.5 μg/ml hydrocortisone, and 10 μg/ml insulin. Additionally, all media used for cell culture was supplemented with 10% heat-inactivated fetal bovine serum (FBS), and a mixture of 25 μg/ml amphotericin B, 1,000 U/ml penicillin, and 1,000 μg/ml streptomycin. The HL-60 cell line was supplemented with 20% FBS and the same antibiotic mixture described. All cell lines were grown in an incubator supplemented with 5% CO2 at 37 °C.
(§6) Cytotoxic activity was evaluated through the DNS assay [17, 18]. This assay involves labeling live and dead cells with two nucleic acid intercalators, Hoechst 33342 and propidium iodide (PI). Hoechst 33342 stains all cells (healthy and dead), but PI stains only dead or dying cells with a compromised cell membrane [17, 18]. For the experiment, each cell line was plated at a density of 10,000 cells per well (96-well plate) in 100 μl media and placed in the incubator overnight under cell culture conditions. Cells were then treated with varying concentrations of the compound of interest for 48 h. Two hours before incubation elapsed, 10 μl of a dye mixture consisting of phosphate-buffered saline (PBS), Hoechst 33342 (1 μg/ml final; Invitrogen, H1399), and PI (1 μg/ml final; Invitrogen, P1304MP) was added to each well. The IN Cell 2000 analyzer, a high-content analyzer (HCA), was used to image the plates (GE Healthcare). For quantitative analysis, images were segmented through the IN Cell Analyzer Workstation 3.2 software (GE Healthcare). […] Each compound concentration and each control were assessed in triplicate.
(§7) For the experiments conducted, the concentrations used correspond to either CC50 or CC50 × 2 in the specified cell line. […] Therefore, we used a CC10 and a CC30 concentration.

[6] = test system: CCRF-CEM; experiment: as above; conditions: Homo sapiens, CCRF-CEM, 48 h
Text: as §1, §2

[7] = test system: COLO 205; experiment: as above; conditions: Homo sapiens, COLO 205, 48 h
Text: as §1, §2

[8] = test system: K562; experiment: as above; conditions: Homo sapiens, K562, 48 h
Text: as §3, §4

[9] = test system: nine tumorigenic cell lines; experiment: DNS assay, summary over the cancer cell line panel; conditions: for CC50: 48 h, read-out: average CC50 towards the nine tumorigenic cell lines
Experimental: Several cancer and non-cancerous cell lines were used for this analysis. […] Additionally, all media used for cell culture was supplemented with 10% heat-inactivated fetal bovine serum (FBS), and a mixture of 25 μg/ml amphotericin B, 1,000 U/ml penicillin, and 1,000 μg/ml streptomycin. […] All cell lines were grown in an incubator supplemented with 5% CO2 at 37 °C.
Cytotoxic activity was evaluated through the DNS assay [17, 18]. […] For the experiment, each cell line was plated at a density of 10,000 cells per well (96-well plate) in 100 μl media and placed in the incubator overnight under cell culture conditions. Cells were then treated with varying concentrations of the compound of interest for 48 h. […] The IN Cell 2000 analyzer, a high-content analyzer (HCA), was used to image the plates (GE Healthcare). For quantitative analysis, images were segmented through the IN Cell Analyzer Workstation 3.2 software (GE Healthcare). […] Each compound concentration and each control were assessed in triplicate.

[10] = test system: HT-29; experiment: Differential nuclear staining (DNS) cytotoxicity assay; conditions: Homo sapiens, HT-29, 48 h
Text: as §1, §2

[11] = as above; conditions: human; CC50 MCF-10A / CC50 MDA-MB-231; read-out: SCI (Selective Cytotoxicity Index)
Text: as §1, §2

[12] = test system: HL-60 cells; experiment: Reactive oxygen species (ROS) assay (carboxy-H2DCFDA); conditions: HL-60, 18 h
Experimental: Reactive oxygen species (ROS) generation can be quantified using the 6-carboxy-2',7'-dichlorodihydrofluorescein diacetate (carboxy-H2DCFDA) dye (Invitrogen; Molecular Probes, C400) [19, 22]. This non-fluorescent dye shifts to a green fluorescent form as oxidation, induced by ROS, occurs within the cell. Therefore, a green fluorescent signal, corresponding to the oxidized form of carboxy-H2DCFDA, indicates ROS generation. Cells (HL-60) were plated overnight at a density of 100,000 cells in 1 ml. […] Samples were collected, centrifuged at 262g for 5 min, and re-suspended in 1 ml PBS to remove the complete medium. Then, cells were loaded with a final concentration of 10 μM carboxy-H2DCFDA dye for 45 min at 37 °C. Following incubation with dye, cells were centrifuged at 262g for 5 min and re-suspended in 500 μl PBS. Then, samples were processed using flow cytometry (Gallios; Beckman Coulter). Data analysis was completed with the Kaluza software (Kaluza Analysis Software; Beckman Coulter). Controls used were the same as mentioned before (0.1% v/v DMSO, 1 mM H2O2, and untreated cells) with an additional unstained (not loaded with dye) control to observe the normal population of cells.

[13] = test system: HL-60 cells; experiment: Mitochondrial membrane potential (ΔΨm) polychromatic assay (JC-1); conditions: HL-60, 5 h, 4 μM
Experimental: The cationic JC-1 (5′,6,6′-tetrachloro-1,1′,3,3′-tetraethylben zimidazolylcarbocyanine iodide) dye can be used to monitor mitochondrial membrane potential (Invitrogen; M34152). A red signal (JC-1 aggregates) indicates an intact polarized mitochondrial membrane, while a green signal (JC-1 monomers) indicates a depolarized mitochondrial membrane. […] A vehicle, positive, and negative control (as previously described) were included as well. Following incubation, cells were collected and stained per the manufacturer’s instructions with a final concentration of 2 μM JC-1 dye. Samples were then examined utilizing flow cytometry (Gallios; Beckman Coulter). Analysis of the subsequent data was completed using Kaluza software (Kaluza Analysis Software; Beckman Coulter).

[14] = test system: caspase-3 activation in HL-60 cells; experiment: Caspase-3 assay (NucView 488); conditions: HL-60, 8 h; concentration not given
[15] = DNS assay, summary over the non-cancerous cell lines; conditions: human, Hs27 and MCF-10A non-cancerous cells, mean of two non-cancerous cell lines, read-out: average CC50 towards Hs27 and MCF-10A
Text: (§8) All cell lines were obtained commercially from ATCC (American Type Culture Collection). Several cancer and non-cancerous cell lines were used for this analysis. […] Solid tumor cancer cell lines included MDA-MB-231 (Adenocarcinoma; HTB-26) cultured in DMEM medium, HT-29 (Colorectal Adenocarcinoma; HTB-38) cultured in McCoy’s 5A medium, and COLO 205 (Colorectal Adenocarcinoma; CCL-222) cultured in RPMI-1640 medium. Non-cancerous cell lines included Hs27 (No disease, foreskin; CRL-1634) cultured in DMEM medium and MCF-10A (Fibrocystic Disease; CRL-10317) cultured in DMEM/F12 medium supplemented with 20 ng/ml epidermal growth factor, 0.5 μg/ml hydrocortisone, and 10 μg/ml insulin. Additionally, all media used for cell culture was supplemented with 10% heat-inactivated fetal bovine serum (FBS), and a mixture of 25 μg/ml amphotericin B, 1,000 U/ml penicillin, and 1,000 μg/ml streptomycin. The HL-60 cell line was supplemented with 20% FBS and the same antibiotic mixture described. […]
(§9) Cytotoxic activity was evaluated through the DNS assay [17, 18]. […] For quantitative analysis, images were segmented through the IN Cell Analyzer Workstation 3.2 software (GE Healthcare). […] Each compound concentration and each control were assessed in triplicate. […] SCI was calculated using the following equation: CC50 of the non-cancer cell line/CC50 of the cancer cell line [20].

[16] = Differential nuclear staining (DNS) cytotoxicity assay; conditions: human, Hs27 cells (non-cancerous) versus KCL22 cells (cancer); CC50 Hs27 / CC50 KCL22; read-out: SCI (Selective Cytotoxicity Index)
Text: as §3, §4

[17] = test system: ATF3 in HL-60 cells; experiment: RT-qPCR gene expression; conditions: HL-60, 6 h, P3 […], P4 4 μM, P5 4 μM, normalised to ACTB, 2^−ΔΔCt
Experimental: (§10) After the incubation period elapsed, cell pellets were washed by centrifuging at 262g for 5 min and re-suspending in 1 ml of PBS. Dry cell pellets were used for RNA extraction. RNA was extracted immediately according to the manufacturer’s instructions of the RNeasy Mini Kit (Qiagen; 74104). A QIAshredder was used to lyse the cells, and the optional DNase I digestion was also accomplished. Three biological replicates were used for each treatment. RNA was stored at −80 °C overnight, then the RNA was used to synthesize cDNA using the RT^2 HT First Strand Kit (Qiagen; 330,411). The amount of RNA used per sample was 500 ng, which was quantified using a NanoDrop ND-1000 system (ThermoFisher Scientific). RNA was diluted using RNase-free water to obtain the desired concentration (500 ng) in 9 μl. As per the manufacturer’s protocol, we incubated 9 μl of the sample with 6 μl GE2 (gDNA elimination buffer) for 5 min at 37 °C, then we added 6 μl BC4 Reverse Transcriptase Mix and incubated for 15 min at 42 °C, 5 min at 95 °C and, finally, a 4 °C hold. […] For data analysis, gene expression levels were normalized to the housekeeping gene (ACTB) and quantified using the comparative Ct method (2^−ΔΔCt). Fold change differences were calculated by comparing gene expression levels of compound treatment versus vehicle control.

[18] = Differential nuclear staining (DNS) cytotoxicity assay; conditions: human, Hs27 cells (non-cancerous) versus Ramos cells (cancer); CC50 Hs27 / CC50 Ramos; read-out: SCI (Selective Cytotoxicity Index)
Text: as §1, §2

[19] = test system: HMOX-1 in HL-60 cells; experiment: RT-qPCR gene expression; conditions: HL-60, 6 h, P3 […], P4 4 μM, P5 4 μM, normalised to ACTB, 2^−ΔΔCt, two independent experiments
Experimental: as §10

[20] = Differential nuclear staining (DNS) cytotoxicity assay; conditions: human, Hs27 cells (non-cancerous) versus Jurkat cells (cancer); CC50 Hs27 / CC50 Jurkat; read-out: SCI (Selective Cytotoxicity Index)
Text: as §3, §4

[21] = test system: PMAIP1 in HL-60 cells; experiment: RT-qPCR gene expression; conditions: HL-60, 6 h, P3 […], P4 4 μM, P5 4 μM, normalised to ACTB, 2^−ΔΔCt
Experimental: as §10

[22] = test system: HL-60 cells; experiment: Cell cycle analysis with NIM-DAPI; conditions: HL-60, 72 h
Experimental: Controls included were a vehicle (0.1% v/v DMSO), positive (1 mM H2O2), and negative (untreated cells) control. Subsequently, cells were collected in flow cytometry tubes and centrifuged at 262g for 5 min. Then, the supernatant was removed, and the cell pellet was re-suspended in a mixture of 100 μl of PBS and 200 μl of NIM-DAPI. Samples were immediately read and analyzed through flow cytometry (Gallios & Kaluza Analysis Software; Beckman Coulter). Approximately 10,000 events were acquired per sample. Data are represented as plots that display peaks (Fig. 6e) which represent fragments of DNA (Sub-G0/1 phase), cells before they replicate DNA (G0/1 phase), active replication of DNA (S phase), and post-replicative stage while entering mitosis (G2M phase) [23].

[23] = Differential nuclear staining (DNS) cytotoxicity assay; conditions: human, Hs27 cells (non-cancerous) versus HL-60 cells (cancer); CC50 Hs27 / CC50 HL-60; read-out: SCI (Selective Cytotoxicity Index)
Experimental: as §5, §6, §7

[24] = as above; conditions: human, Hs27 cells (non-cancerous) versus CCRF-CEM cells (cancer); CC50 Hs27 / CC50 CCRF-CEM; read-out: SCI (Selective Cytotoxicity Index)
Text: as §1, §2

[25] = as above; conditions: human, Hs27 cells (non-cancerous) versus COLO 205 cells (cancer); CC50 Hs27 / CC50 COLO 205; read-out: SCI (Selective Cytotoxicity Index)
Text: as §1, §2

[26] = as above; conditions: human, Hs27 cells (non-cancerous) versus K562 cells (cancer); CC50 Hs27 / CC50 K562; read-out: SCI (Selective Cytotoxicity Index)
Text: as §3, §4

[27] = as above; conditions: human, MCF-10A non-cancerous cells
Text: as §3
Cytotoxic activity was evaluated through the DNS assay [17, 18]. […] For quantitative analysis, images were segmented through the IN Cell Analyzer Workstation 3.2 software (GE Healthcare). […] Each compound concentration and each control were assessed in triplicate.

[28] = as above; conditions: human, Hs27 non-cancerous cells
Text: as §8, §9

[29] = test system: CHAC1 in HL-60 cells; experiment: RT-qPCR gene expression; conditions: HL-60, 6 h, P3 […], P4 4 μM, P5 4 μM, normalised to ACTB, 2^−ΔΔCt
Experimental: as §10

[30] = test system: HL-60 cells; experiment: Annexin V-FITC assay (phosphatidylserine externalization); conditions: HL-60, 24 h, CC50 concentration (P3 […], P4 2 μM, P5 2 μM)
Experimental: The annexin V-FITC assay was used to evaluate the induction of apoptosis (Beckman Coulter; IM3546) [21]. HL-60 cells were seeded at a density of 100,000 cells in 1 ml complete medium. Cells were treated with the three compounds of interest for 24 h. […] Controls used were a vehicle control (0.1% v/v DMSO), an apoptosis-inducing positive control (1 mM H2O2), and an untreated cell negative control. Following treatment, cells were collected and stained with both PI and annexin V-FITC according to the manufacturer’s instructions (Beckman Coulter; IM3546). Samples were immediately read by flow cytometry (Gallios; Beckman Coulter). Data analysis was accomplished with Kaluza software (Kaluza Analysis Software; Beckman Coulter).

[31] = test system: MYC in HL-60 cells; experiment: RT-qPCR gene expression; conditions: HL-60, 6 h, P3 […], P4 4 μM, P5 4 μM, normalised to ACTB, 2^−ΔΔCt
Experimental: as §10

[32] = Differential nuclear staining (DNS) cytotoxicity assay; conditions: human, Hs27 cells (non-cancerous) versus HT-29 cells (cancer); CC50 Hs27 / CC50 HT-29; read-out: SCI (Selective Cytotoxicity Index)
Text: as §1, §2

[33] = HL-60, concentration used for 72 h cell cycle analysis

## N[C@@H](Cc1ccc(N(CCCl)CCCl)cc1)C(=O)O [Melphalan, reference compound]
[1]
  CC50: 9230 nM
[2]; KCL-22, 48 h
  CC50: 81300 nM
[3]
  CC50: 2050 nM
[4]
  CC50: 1910 nM
[5]; HL-60, 48 h
  CC50: 1570 nM
[6]
  CC50: 3170 nM
[7]
  CC50: 20400 nM
[8]
  CC50: 19600 nM
[9]
  CC50: 17800 nM
[10]
  CC50: 21100 nM

## O=C1/C(=C/c2ccc(O)c(CN3CCOCC3)c2)CNC/C1=C\c1ccc(O)c(CN2CCOCC2)c1 [P5]
[1]; DNS assay, read-out: CC50
  CC50: 1740 nM
[11]
  selectivity ratio at 48 h: 1.26
[12]; P3 […], P4 2 μM, P5 2 μM
  increase of cells positive for ROS production compared to DMSO: ~ 38%
[12]; twice the concentration (P3 […], P4 4 μM, P5 4 μM)
  increase of cells positive for ROS production compared to DMSO: ~ 65%
[13]
  increase in the cell population with a depolarized mitochondrial membrane in comparison to DMSO: ~ 10%
[14]
  cells with active caspase-3, as compared to DMSO: ~ 49%
[15]
  CC50 at 48 h: 3840 nM
[16]
  selectivity ratio at 48 h: 3.49
[2]; KCL-22, KCL22, 48 h, DNS assay, read-out: CC50
  CC50: 1570 nM
[17]
  fold-change difference of ATF3 expression versus vehicle: 204.56
[3]; DNS assay, read-out: CC50
  CC50: 1060 nM
[18]
  selectivity ratio at 48 h: 5.19
[19]
  fold-change difference of HMOX-1 expression versus vehicle: 2464.89
[20]
  selectivity ratio at 48 h: 6.05
[4]; DNS assay, read-out: CC50
  CC50: 910 nM
[21]
  fold-change difference of PMAIP1 expression versus vehicle: 79.50
[22]; 0.4 μM
  increase in the percentage of cells arrested at the G2/M phase versus DMSO: ~ 9%
[22]; printed as double the CC50 concentration
  change in the percentage of cells in the S phase compared to DMSO: significant decrease
[23]
  selectivity ratio at 48 h: 7.47
[5]; [33]
  CC10: 400 nM
  CC30: 1200 nM
[5]; HL-60, 48 h, DNS assay, read-out: CC50
  CC50: 740 nM
[5]; HL-60, value used to set treatment concentrations, read-out: CC50 in HL-60 (concentrations for cell death induction)
  CC50: 2000 nM
[24]
  selectivity ratio at 48 h: 8.42
[6]; DNS assay, read-out: CC50
  CC50: 650 nM
[25]
  selectivity ratio at 48 h: 6.87
[7]; DNS assay, read-out: CC50
  CC50: 800 nM
[26]
  selectivity ratio at 48 h: 1.29
[8]; DNS assay, read-out: CC50
  CC50: 4250 nM
[27]
  CC50 at 48 h: 2180 nM
[28]
  CC50 at 48 h: 5500 nM
[29]
  fold-change difference of CHAC1 expression versus vehicle: 106.96
[9]; DNS assay, mean over nine cell lines
  CC50: 1520 nM
[9]; ratio of average CC50 values, nine tumorigenic cell lines
  times more potent than melphalan: 11.7
[30]
  increase of Annexin V-FITC-positive cells in comparison to DMSO: ~ 30%
[31]
  fold-change difference of MYC expression versus vehicle: −4.15
[32]
  selectivity ratio at 48 h: 2.85
[10]; DNS assay, read-out: CC50
  CC50: 1930 nM
